# Source: patent publication US7910751B2, “Heterocyclidene acetamide derivative” (Mochida Pharmaceutical Co., Ltd., priority 2005, dated 2011)
# Target: T1, human TRPV1 (Homo sapiens, UniProt Q8NER1)
# T1 construct: expressed in transfected cells; host or cells: CHO-K1
# Test: Measurement of capsaicin-induced Ca influx in human TRPV1 transformed CHO cell line using FDSS-6000
# Assay type: cell-based
# Conditions: concentration at which the capsaicin concentration-reaction curve is shifted two times to the right, human TRPV1 transformed CHO cells
# T1 sequence (Q8NER1 whole entry): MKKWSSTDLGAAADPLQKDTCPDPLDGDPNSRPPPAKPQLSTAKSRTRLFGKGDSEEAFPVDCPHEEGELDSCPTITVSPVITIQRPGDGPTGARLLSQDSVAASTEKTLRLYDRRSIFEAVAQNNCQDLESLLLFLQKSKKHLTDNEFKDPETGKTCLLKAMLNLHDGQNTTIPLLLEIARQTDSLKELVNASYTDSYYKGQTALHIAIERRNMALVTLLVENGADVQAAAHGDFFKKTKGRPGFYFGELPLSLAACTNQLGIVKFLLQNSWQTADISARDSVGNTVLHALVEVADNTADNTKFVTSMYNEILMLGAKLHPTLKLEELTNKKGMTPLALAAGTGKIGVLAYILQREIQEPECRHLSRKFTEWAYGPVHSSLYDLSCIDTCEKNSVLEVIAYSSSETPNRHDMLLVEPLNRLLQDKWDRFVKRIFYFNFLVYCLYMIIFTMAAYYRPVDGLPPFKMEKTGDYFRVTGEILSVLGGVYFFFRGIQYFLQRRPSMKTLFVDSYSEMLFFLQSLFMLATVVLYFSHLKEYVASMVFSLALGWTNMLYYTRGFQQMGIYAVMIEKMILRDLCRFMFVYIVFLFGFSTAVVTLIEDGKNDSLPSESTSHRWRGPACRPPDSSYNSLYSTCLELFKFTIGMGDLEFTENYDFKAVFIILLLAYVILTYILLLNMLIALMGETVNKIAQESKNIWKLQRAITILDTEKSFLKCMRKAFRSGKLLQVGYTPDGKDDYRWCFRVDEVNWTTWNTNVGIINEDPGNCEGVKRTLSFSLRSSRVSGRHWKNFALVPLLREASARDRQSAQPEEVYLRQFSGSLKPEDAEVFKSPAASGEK
row,Structure (SMILES),A2 VALUE
1,"O=C(/C=C1\CCN(C(=O)CCC(F)(F)F)c2cc(C(F)(F)F)ccc21)Nc1cccc2c1CC(O)CC2 (stereo not shown) [Example 91, (E)-2-(1-(4,4,4-trifluorobutanoyl)-7-trifluoromethyl-2,3-dihydroquinolin-4(1H)-ylidene)-N-(7-hydroxy-5,6,7,8-tetrahydronaphthalen-1-yl)acetamide]",A (compounds of the present invention having an A2 value of less than 100 nM are represented by A)
2,"Cn1ccc2cc(NC(=O)/C=C3\CCCOc4cc(C(F)(F)F)ccc43)ccc21 [Example 149, (E)-2-(8-trifluoromethyl-3,4-dihydrobenzo[b]oxepin-5(2H)-ylidene)-N-(1-methylindol-5-yl)acetamide]",A (compounds of the present invention having an A2 value of less than 100 nM are represented by A)
3,"O=C(/C=C1\CCOc2cc(C(F)(F)F)ccc21)Nc1cccc2c1CC(O)C(=O)N2 (stereo not shown) [Example 121, (E)-N-(3-hydroxy-2-oxo-1,2,3,4-tetrahydroquinolin-5-yl)-2-(7-trifluoromethyl-chroman-4-ylidene)acetamide]",A (compounds of the present invention having an A2 value of less than 100 nM are represented by A)
4,"CC1(C)C/C(=C\C(=O)Nc2cccc3c2CC(O)CC3)c2ccc(C(F)(F)F)cc2O1 (stereo not shown) [Example 241, (E)-2-(7-trifluoromethyl-2,2-dimethylchroman-4-ylidene)-N-(7-hydroxy-5,6,7,8-tetrahydronaphthalen-1-yl)acetamide]",A (compounds of the present invention having an A2 value of less than 100 nM are represented by A)
5,"CC(C)c1ccc2c(c1)OCC/C2=C\C(=O)Nc1cccc2c1CC(O)CN2 (stereo not shown) [Example 207, (E)-2-(7-isopropyl-chroman-4-ylidene)-N-(3-hydroxy-1,2,3,4-tetrahydroquinolin-5-yl)acetamide]",A (compounds of the present invention having an A2 value of less than 100 nM are represented by A)
6,"Cc1nc2cc(NC(=O)/C=C3\CCCOc4cc(C(F)(F)F)ccc43)ccc2s1 [Example 19, (E)-2-(8-trifluoromethyl-3,4-dihydrobenzo[b]oxepin-5(2H)-ylidene)-N-(2-methyl-1,3-benzothiazolo-5-yl)acetamide]",A (compounds of the present invention having an A2 value of less than 100 nM are represented by A)
7,"O=C(/C=C1\CCCN(C(=O)C2CCCC2)c2cc(C(F)(F)F)ccc21)Nc1ccc2cccnc2c1 [Example 193, (E)-2-(1-cyclopentanecarbonyl-8-trifluoromethyl-1,2,3,4-tetrahydro-5H-benzo[b]azepin-5-ylidene)-N-(quinolin-7-yl)acetamide]",A (compounds of the present invention having an A2 value of less than 100 nM are represented by A)
8,"O=C(/C=C1\CCCOc2cc(C(F)(F)F)ccc21)Nc1cccc(-c2cnc3ccccc3n2)c1 [Example 28, (E)-2-(8-trifluoromethyl-3,4-dihydrobenzo[b]oxepin-5(2H)-ylidene)-N-(3-(quinoxalin-2-yl)phenyl)acetamide]",B (compounds having an A2 value of 100 nM or more are represented by B)
9,"Cc1sc2cnccc2c1NC(=O)/C=C1\CCCOc2cc(C(F)(F)F)ccc21 [Example 221, (E)-2-(8-trifluoromethyl-3,4-dihydrobenzo[b]oxepin-5(2H)-ylidene)-N-(2-methylthieno[2,3-c]pyridin-3-yl)acetamide]",A (compounds of the present invention having an A2 value of less than 100 nM are represented by A)
10,"O=C(/C=C1\CCN(C(=O)c2ccccc2)c2cc(C(F)(F)F)ccc21)Nc1ccc2cccnc2c1 [Example 54, (E)-2-(7-trifluoromethyl-2,3-dihydro-1-benzoylquinolin-4(1H)-ylidene)-N-(quinolin-7-yl)acetamide]",A (compounds of the present invention having an A2 value of less than 100 nM are represented by A)
11,"O=C(/C=C1\CCCOc2cc(C(F)(F)F)ccc21)Nc1ccc2sc(CO)nc2c1 [Example 59, (E)-2-(8-trifluoromethyl-3,4-dihydrobenzo[b]oxepin-5(2H)-ylidene)-N-(2-hydroxymethyl-1,3-benzothiazolo-5-yl)acetamide]",A (compounds of the present invention having an A2 value of less than 100 nM are represented by A)
12,"CCC(F)(F)C(=O)N1CC/C(=C\C(=O)Nc2cccc3c2CC(O)CN3)c2ccc(C(F)(F)F)cc21 (stereo not shown) [Example 184, (E)-2-(1-(2,2-difluorobutanoyl)-7-trifluoromethyl-2,3-dihydroquinolin-4(1H)-ylidene)-N-(3-hydroxy-1,2,3,4-tetrahydroquinolin-5-yl)acetamide]",A (compounds of the present invention having an A2 value of less than 100 nM are represented by A)
13,"O=C(/C=C1\CCCOc2cc(C(F)(F)F)ccc21)NCCc1cccc2c1CC(O)CC2 (stereo not shown) [Example 226, (E)-2-(8-trifluoromethyl-3,4-dihydrobenzo[b]oxepin-5(2H)-ylidene)-N-(2-(7-hydroxy-5,6,7,8-tetrahydronaphthalen-1-yl)ethyl)acetamide]",A (compounds of the present invention having an A2 value of less than 100 nM are represented by A)
14,"O=C(/C=C1\CCCOc2cc(C(F)(F)F)ccc21)Nc1cccc2c1CC(O)CN2 (stereo not shown) [Example 218, (E)-2-(8-trifluoromethyl-3,4-dihydrobenzo[b]oxepin-5(2H)-ylidene)-N-(3-hydroxy-1,2,3,4-tetrahydroquinolin-5-yl)acetamide]",A (compounds of the present invention having an A2 value of less than 100 nM are represented by A)
15,"CC(C)CCC(=O)N1CC/C(=C\C(=O)Nc2ccc3cccnc3c2)c2ccc(C(F)(F)F)cc21 [Example 78, (E)-2-(1-(4-methylpentanoyl)-7-trifluoromethyl-2,3-dihydroquinolin-4(1H)-ylidene)-N-(quinolin-7-yl)acetamide]",A (compounds of the present invention having an A2 value of less than 100 nM are represented by A)
16,"O=C(/C=C1\CCCOc2cc(C(F)(F)F)ccc21)Nc1cccc2c1CC(O)C(O)C2 (stereo not drawn) [Example 65, (E)-2-(8-trifluoromethyl-3,4-dihydrobenzo[b]oxepin-5-(2H)-ylidene)-N-(trans-6,7-dihydroxy-5,6,7,8-tetrahydronaphthalen-1-yl)acetamide]",A (compounds of the present invention having an A2 value of less than 100 nM are represented by A)
17,"O=C(/C=C1\CCCOc2cc(C(F)(F)F)ccc21)Nc1ccc(S(=O)(=O)N2CCOCC2)cc1 [Example 26, (E)-2-(8-trifluoromethyl-3,4-dihydrobenzo[b]oxepin-5(2H)-ylidene)-N-(4-(4-morpholinylsulfonyl)phenyl)acetamide]",B (compounds having an A2 value of 100 nM or more are represented by B)
18,"O=C(/C=C1\CCN(C(=O)c2cccnc2)c2cc(C(F)(F)F)ccc21)Nc1ccc2cccnc2c1 [Example 55, (E)-2-(7-trifluoromethyl-2,3-dihydro-1-nicotinoylquinolin-4(1H)-ylidene)-N-(quinolin-7-yl)acetamide]",A (compounds of the present invention having an A2 value of less than 100 nM are represented by A)
19,O=C(/C=C1\CCCOc2cc(C(F)(F)F)ccc21)Nc1ccc(Oc2ccc(C(F)(F)F)cn2)cc1 [Example 27],B (compounds having an A2 value of 100 nM or more are represented by B)
